Earlier results in US7625920B2, “Fluorinated 4-azasteroid derivatives as androgen receptor modulators” (priority 2003, dated 2009).

How the values were obtained:
[1] = after 7 years of treatment
[2] = median of 22 months of treatment

Compound | increase in spinal BMD [1] [%] | reduction in nonvertebral fractures [2] [%] | reduction in spine fractures [2] [%]
NCCCC(O)(P(=O)([O-])O)P(=O)(O)O.O.O.O.[Na+] [alendronate, (4-amino-1-hydroxybutylidene)-bis-phosphonate monosodium trihydrate] | 11 | – | –
hPTH(1-34): human parathyroid hormone 1-34 fragment (SVSEIQLMHNLGKHLNSMERVEWLRKKLQDVHNF; Parathyroid hormone; UniProt P01270 32-65, looked up, fragment) | – | 54 | ≥ 65
